# Test results from US9096686B2, “E518A/K mutant smoothened and methods of using the same” (Genentech, Inc., priority 2010, dated 2015).
# “Also recorded” adds a separate entry of the source. Read-outs that look alike come from different tables or passages of the source.
# How the values were obtained:
# [1] = Plasma pharmacokinetics after single oral dose in mice; type: in vivo
# Text: (§1) Circles mark the A-, B- and C-rings of some compounds as indicated for HhAntag.
# SMO-D473H = target: T1, SMO-D473H (Homo sapiens, UniProt Q99835, D473H); assay: Gli-luciferase reporter assay, SMO-D473H overexpression in C3H10T½ cells; type: cell-based
# T1 construct: expressed in transfected cells; host or cells: C3H10T1/2 mouse fibroblasts (ATCC CCL-226), pRK5 vector, CMV promoter
# Procedure: as §1
# (§2) Gli-luciferase reporter assays. Gli-luciferase reporter assays were performed as described (Rudin, C. M. et al. (2009) N. Engl. J. Med. 361:1173-1178) with the following modifications; C3H10T½ cells (ATCC, CCL-226) were seeded into six-well plates at 1.85×10^5 cells/well and values shown are the mean of four separate experiments ±1 standard deviation (SD).
# (§3) These compounds were either identified in high-throughput screens (both in house and by others) or were generated by hit-to-lead optimization of screening hits using traditional medicinal chemistry methods. C3H10T½ cells were co-transfected with wild type or mutant SMO expression vectors together with a Gli-luciferase reporter construct (Murone M. et al. (1999) Curr. Biol. 9(2):76-84), and pathway activation was measured in the presence or absence of 1 μM compound.
# SMO-E518K = target: T2, SMO-E518K (Homo sapiens, UniProt Q99835, E518K); assay: Gli-luciferase reporter assay, SMO-E518K overexpression in C3H10T½ cells; type: cell-based
# T2 construct: expressed in transfected cells; host or cells: C3H10T1/2 mouse fibroblasts (ATCC CCL-226), pRK5 vector, CMV promoter
# Procedure: (§4) Regions targeted by alanine scan mutagenesis are indicated in light grey. […] Values were normalized to maximum activity levels and represent means±SDs.
# as §1, §2, §3
# [2] = Metabolism by human hepatocytes; type: in vitro ADME; conditions: unpublished observation
# SMO-WT = target: T3, SMO-WT (Homo sapiens, UniProt Q99835); assay: Gli-luciferase reporter assay, SMO-WT overexpression in C3H10T½ cells; type: cell-based; conditions: 1 μM compound
# T3 construct: expressed in transfected cells; host or cells: C3H10T1/2 mouse fibroblasts (ATCC CCL-226), pRK5 vector, CMV promoter
# Procedure: as §1, §2, §3
# medulloblastoma = medulloblastoma patient, widespread metastatic disease; cited from earlier work
# SMO-E518A = target: T4, SMO-E518A (Homo sapiens, UniProt Q99835, E518A); assay: Gli-luciferase reporter assay, SMO-E518A in C3H10T½ cells; type: cell-based; conditions: dose response; signaling activity despite 1 μM
# T4 construct: expressed in transfected cells; host or cells: C3H10T1/2 mouse fibroblasts (ATCC CCL-226), pRK5 vector, CMV promoter
# Procedure: as §4, §2
# T1 sequence (Q99835 28-787 D473H): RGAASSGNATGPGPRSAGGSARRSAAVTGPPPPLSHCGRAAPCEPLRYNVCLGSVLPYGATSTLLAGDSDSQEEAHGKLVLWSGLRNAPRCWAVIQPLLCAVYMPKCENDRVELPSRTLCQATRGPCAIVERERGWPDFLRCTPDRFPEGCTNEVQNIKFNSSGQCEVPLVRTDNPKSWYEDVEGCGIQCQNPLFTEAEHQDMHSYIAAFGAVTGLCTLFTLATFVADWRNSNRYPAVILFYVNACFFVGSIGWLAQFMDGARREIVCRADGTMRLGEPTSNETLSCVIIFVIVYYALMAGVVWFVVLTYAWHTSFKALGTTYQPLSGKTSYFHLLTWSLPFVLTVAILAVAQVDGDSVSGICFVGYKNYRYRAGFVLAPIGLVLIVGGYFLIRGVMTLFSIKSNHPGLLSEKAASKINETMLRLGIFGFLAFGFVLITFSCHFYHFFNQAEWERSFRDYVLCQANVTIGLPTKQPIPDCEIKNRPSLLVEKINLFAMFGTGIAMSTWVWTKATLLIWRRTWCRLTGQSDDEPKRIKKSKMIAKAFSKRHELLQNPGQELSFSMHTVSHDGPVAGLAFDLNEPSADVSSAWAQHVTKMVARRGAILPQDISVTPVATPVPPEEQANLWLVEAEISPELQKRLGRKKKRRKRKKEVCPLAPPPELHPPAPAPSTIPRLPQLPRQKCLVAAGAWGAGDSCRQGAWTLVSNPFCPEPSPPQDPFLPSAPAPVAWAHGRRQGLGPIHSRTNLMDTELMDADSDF
# T2 sequence (Q99835 28-787 E518K): as the sequence (Q99835 28-787 D473H) above, with H446D, E491K counted along it
# T4 sequence (Q99835 28-787 E518A): as the sequence (Q99835 28-787 D473H) above, with H446D, E491A counted along it
# T3 sequence (Q99835 28-787): as the sequence (Q99835 28-787 D473H) above, with H446D counted along it
Compound,pharmacokinetic properties in mice [1],"potency against SMO-D473H (inhibition of Gli-luciferase activity) (SMO-D473H; 1 μM compound, C3H10T½ cells)","potency against SMO-E518K (inhibition of Gli-luciferase activity) (SMO-E518K; 1 μM compound, C3H10T½ cells)",other results
C[C@@H]1CN(c2ccc(C(=O)Nc3ccc(Cl)c(NC(=O)c4cccc(Cl)c4)c3)cn2)C[C@H](C)N1 [compound 5],good pharmacokinetic properties,potent; also recorded: improved potencies,potent,"half-life ([1]; mouse, single oral 100 mg kg-1 dose, plasma): 22 h"
Cc1nn(-c2ccccc2)c(C)c1/C=N/N1CCN(Cc2ccccc2)CC1 [SANT-1],–,partially resistant,sensitive,–
HhAntag,–,essentially equipotent against all SMO alleles,essentially equipotent against all SMO alleles,metabolism by human hepatocytes [2]: rapidly metabolized; activity against wild type SMO (inhibition of Gli-luciferase activity) (SMO-WT): essentially equipotent against all SMO alleles
CS(=O)(=O)c1ccc(C(=O)Nc2ccc(Cl)c(-c3ccccn3)c2)c(Cl)c1 [GDC-0449],–,–,–,"clinical response to treatment (medulloblastoma): dramatic and rapid response; resistance of SMO-E518A to the inhibitor, Gli-luciferase reporter activity (SMO-E518A): partially resistant; resistance of SMO-E518K to the inhibitor, Gli-luciferase reporter activity (SMO-E518K; dose response, up to 1 μM): completely resistant"
CC1=C2C[C@H]3[C@@H](CC=C4C[C@@H](O)CC[C@@]43C)[C@@H]2CC[C@]12O[C@@H]1C[C@H](C)CN[C@H]1[C@H]2C [cyclopamine],–,–,–,potency against SMO-D473H (inhibition of Gli-luciferase activity) (SMO-D473H): partially resistant; potency against SMO-E518K (inhibition of Gli-luciferase activity) (SMO-E518K): completely resistant
O=C(Nc1ccc(Cl)c(NC(=O)c2cccc(Cl)c2)c1)c1ccc(N2CCC(O)CC2)nc1 [compound 4],good pharmacokinetic properties,potent; also recorded: improved potencies,potent,–
